What was measured:
Assay type in all cases: cell-based
HCN4 = target: T1, HCN4 (Homo sapiens, UniProt Q9Y3Q4); experiment: HCN4 automated patch clamp current inhibition assay (Ionworks Barracuda); settings: HEK-293 cells stably expressing HCN4; current inhibition during a hyperpolarizing pulse of -100 mV
T1 construct: expressed in transfected cells
T1 sequence (Q9Y3Q4 1-1203): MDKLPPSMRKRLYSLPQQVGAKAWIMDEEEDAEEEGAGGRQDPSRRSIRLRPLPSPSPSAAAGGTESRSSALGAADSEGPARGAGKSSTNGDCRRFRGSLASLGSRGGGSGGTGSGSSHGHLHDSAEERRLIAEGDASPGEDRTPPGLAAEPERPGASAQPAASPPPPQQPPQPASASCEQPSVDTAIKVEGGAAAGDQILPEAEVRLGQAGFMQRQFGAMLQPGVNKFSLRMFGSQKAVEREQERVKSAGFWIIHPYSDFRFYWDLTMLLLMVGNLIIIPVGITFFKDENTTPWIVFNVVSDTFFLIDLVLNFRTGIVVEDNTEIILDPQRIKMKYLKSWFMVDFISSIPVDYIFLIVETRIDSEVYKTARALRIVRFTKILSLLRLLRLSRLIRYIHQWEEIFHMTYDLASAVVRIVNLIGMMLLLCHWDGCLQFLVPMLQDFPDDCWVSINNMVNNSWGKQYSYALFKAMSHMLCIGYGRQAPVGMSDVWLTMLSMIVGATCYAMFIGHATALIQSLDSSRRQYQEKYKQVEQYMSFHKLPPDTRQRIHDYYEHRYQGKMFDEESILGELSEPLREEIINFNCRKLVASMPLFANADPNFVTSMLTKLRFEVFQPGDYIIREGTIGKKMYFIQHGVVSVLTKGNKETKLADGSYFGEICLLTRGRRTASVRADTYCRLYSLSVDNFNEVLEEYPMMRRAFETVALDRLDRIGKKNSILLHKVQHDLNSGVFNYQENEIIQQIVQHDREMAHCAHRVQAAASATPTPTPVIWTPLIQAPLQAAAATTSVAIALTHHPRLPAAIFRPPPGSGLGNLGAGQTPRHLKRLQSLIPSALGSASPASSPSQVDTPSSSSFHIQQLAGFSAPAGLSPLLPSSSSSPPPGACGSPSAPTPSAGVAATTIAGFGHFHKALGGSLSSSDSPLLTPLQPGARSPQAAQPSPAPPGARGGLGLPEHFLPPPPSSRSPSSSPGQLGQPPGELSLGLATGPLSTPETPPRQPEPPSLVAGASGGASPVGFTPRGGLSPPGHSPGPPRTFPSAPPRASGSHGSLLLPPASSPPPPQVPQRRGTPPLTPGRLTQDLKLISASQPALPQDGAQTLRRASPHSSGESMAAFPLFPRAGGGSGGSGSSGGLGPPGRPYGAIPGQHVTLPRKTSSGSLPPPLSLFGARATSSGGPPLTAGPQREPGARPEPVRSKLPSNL
Description: (§1) In vitro, high-throughput cellular electrophysiology was employed to detect voltage- and use-dependence of compounds in single concentration screening and IC50 determination for library and medicinal chemistry profiling compounds in 384 well plates.
(§2) Cell cultures were maintained in DMEM/F12 cell growth media containing FBS and appropriate antibiotics at 37° C., 5% CO2 for a maximum of 20 passages. At a time point of 40-72 hours prior to assay, the expression of HCN protein in the cells is induced by addition of tetracyclin. Cells may be incubated at 27° C. for 2-24 hours of induction. […] Cells were harvested at 80% confluency and resuspended in extracellular buffer and added to wells. A freshly prepared Escin solution was added to intracellular buffer and applied to establish whole cell recording via perforated patch clampling by APC.
(§3) Currents through activated channels were measured directly by APC by employing hyperpolarizing voltage steps. The activation window was increased and stabilized by the addition of cell permeable Br-cAMP. Baselines were established for both use- and voltage-dependence protocols using a −30 mV holding potential and multiple test pulses at −100 mV or by 20 mV steps from −120 to 0 mV, respectively. Test compounds were added after baseline recordings followed by a 10 min incubation, voltage-dependency protocol recording, and use-dependency recording. Data was corrected for baseline and rundown (well based) and normalized for % inhibition (plate based). Five previously reported HCN inhibitors of varying potencies and selectivities and zatebradine were used for run to run and plate to plate quality controls. […] Percent inhibition was analysed at −80, −100, −120 mV of the voltage-dependency protocol and at pulse 0 and 50 of the use-dependency protocols. Selectivity was assessed against HCN2, HCN3, and HCN4 overexpressing cell lines using similar methods. As HCN4 has a slower activation than the other HCN channels, activation was extended to achieve steady state activation.

HCN1 = target: T2, HCN1 (Homo sapiens, UniProt O60741); experiment: HCN1 automated patch clamp current inhibition assay (Ionworks Barracuda); settings: HEK-293 cells stably expressing HCN1; current inhibition during a hyperpolarizing pulse of -100 mV
T2 construct: expressed in transfected cells
T2 sequence (O60741 1-890): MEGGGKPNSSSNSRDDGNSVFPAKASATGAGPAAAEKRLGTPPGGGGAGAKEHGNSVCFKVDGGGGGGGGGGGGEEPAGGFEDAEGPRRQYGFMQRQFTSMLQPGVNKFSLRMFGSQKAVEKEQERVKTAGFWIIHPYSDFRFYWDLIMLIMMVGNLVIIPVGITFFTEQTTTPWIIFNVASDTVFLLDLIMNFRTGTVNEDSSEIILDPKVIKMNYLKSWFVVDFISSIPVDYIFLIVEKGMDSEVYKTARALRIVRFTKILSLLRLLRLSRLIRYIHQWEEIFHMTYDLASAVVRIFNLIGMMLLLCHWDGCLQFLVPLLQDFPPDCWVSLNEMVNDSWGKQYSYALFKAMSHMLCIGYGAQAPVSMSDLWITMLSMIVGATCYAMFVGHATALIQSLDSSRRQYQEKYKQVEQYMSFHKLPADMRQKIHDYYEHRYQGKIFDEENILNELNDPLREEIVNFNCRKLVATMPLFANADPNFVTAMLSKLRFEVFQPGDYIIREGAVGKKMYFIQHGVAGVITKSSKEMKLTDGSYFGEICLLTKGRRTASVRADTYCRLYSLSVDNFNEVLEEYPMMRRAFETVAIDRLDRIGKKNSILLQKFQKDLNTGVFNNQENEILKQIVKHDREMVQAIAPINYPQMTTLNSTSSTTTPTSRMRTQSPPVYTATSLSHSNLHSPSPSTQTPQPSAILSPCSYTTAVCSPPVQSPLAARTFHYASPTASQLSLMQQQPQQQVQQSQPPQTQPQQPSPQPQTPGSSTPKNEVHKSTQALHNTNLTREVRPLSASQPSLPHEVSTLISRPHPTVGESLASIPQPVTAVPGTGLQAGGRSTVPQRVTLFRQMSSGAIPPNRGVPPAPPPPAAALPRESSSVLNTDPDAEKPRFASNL
Description: as §1, §2, §3

HCN2 = target: T3, HCN2 (Homo sapiens, UniProt Q9UL51); experiment: HCN2 automated patch clamp current inhibition assay (Ionworks Barracuda); settings: HEK-293 cells stably expressing HCN2; current inhibition during a hyperpolarizing pulse of -100 mV
T3 construct: expressed in transfected cells
T3 sequence (Q9UL51 1-889): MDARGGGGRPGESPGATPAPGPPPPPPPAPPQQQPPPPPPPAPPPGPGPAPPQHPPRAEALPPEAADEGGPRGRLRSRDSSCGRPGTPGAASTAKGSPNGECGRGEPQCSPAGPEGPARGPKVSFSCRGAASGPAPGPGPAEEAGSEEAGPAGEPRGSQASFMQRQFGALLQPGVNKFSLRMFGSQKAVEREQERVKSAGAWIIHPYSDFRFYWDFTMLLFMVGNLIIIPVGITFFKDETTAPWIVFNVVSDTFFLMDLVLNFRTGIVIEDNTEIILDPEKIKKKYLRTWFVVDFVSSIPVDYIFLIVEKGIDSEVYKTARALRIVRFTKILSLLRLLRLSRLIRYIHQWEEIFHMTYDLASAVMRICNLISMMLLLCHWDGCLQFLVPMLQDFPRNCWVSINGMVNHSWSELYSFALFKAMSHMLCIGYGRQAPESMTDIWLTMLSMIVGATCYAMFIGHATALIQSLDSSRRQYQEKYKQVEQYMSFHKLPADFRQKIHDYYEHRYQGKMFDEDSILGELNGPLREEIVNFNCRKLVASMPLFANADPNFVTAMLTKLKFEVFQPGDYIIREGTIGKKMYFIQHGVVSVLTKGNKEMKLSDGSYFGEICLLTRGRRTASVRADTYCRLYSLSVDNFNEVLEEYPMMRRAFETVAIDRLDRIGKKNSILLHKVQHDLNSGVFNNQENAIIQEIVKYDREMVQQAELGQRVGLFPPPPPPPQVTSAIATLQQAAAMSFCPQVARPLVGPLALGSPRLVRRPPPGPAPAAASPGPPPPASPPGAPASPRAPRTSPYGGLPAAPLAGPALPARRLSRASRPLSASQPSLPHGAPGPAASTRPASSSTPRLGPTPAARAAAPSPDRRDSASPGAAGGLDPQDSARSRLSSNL
Description: as §1, §2, §3

IC50 (HCN4) | IC50 (HCN1) | IC50 (HCN2) | SMILES
> 40 µM | 0.297 µM | > 40 µM | Cc1ccc(-n2c(C(N)=O)nc(C#Cc3cc(Cl)ncc3F)c2C)cn1 [Example 7, 4-((2-Chloro-5-fluoropyridin-4-yl)ethynyl)-5-methyl-1-(6-methylpyridin-3-yl)-1H-imidazole-2-carboxamide]
> 40 µM | 0.518 µM | > 40 µM | Cc1ccc(-n2c(C(N)=O)nc(C#Cc3ccc(Cl)cc3)c2C)cn1 [Example 9, 4-[2-(4-Chlorophenyl)ethynyl]-5-methyl-1-(6-methyl-3-pyridyl)imidazole-2-carboxamide]
> 40 µM | 0.833 µM | > 40 µM | Cc1ccc(-n2c(C(N)=O)nc(C#Cc3ccnc(C(F)(F)F)c3)c2C)cn1 [Example 11, 5-Methyl-1-(6-methylpyridin-3-yl)-4-((2-(trifluoromethyl)pyridin-4-yl)ethynyl)-1H-imidazole-2-carboxamide]
> 40 µM | 1.01 µM | > 40 µM | Cc1ccc(-n2c(C(N)=O)nc(C#Cc3ccnc(F)c3)c2C)cn1 [Example 12, 4-[2-(2-Fluoro-4-pyridyl)ethynyl]-5-methyl-1-(6-methyl-3-pyridyl)imidazole-2-carboxamide]
> 40 µM | 2.39 µM | > 40 µM | Cc1ccc(-n2c(C(N)=O)nc(C#Cc3ccnc(Cl)n3)c2C)cn1 [Example 15, 4-((2-Chloropyrimidin-4-yl)ethynyl)-5-methyl-1-(6-methylpyridin-3-yl)-1H-imidazole-2-carboxamide]
> 40 µM | 2.4 µM | > 40 µM | Cc1ccc(-n2c(C(N)=O)nc(C#Cc3ccncc3F)c2C)cn1 [Example 16, 4-((3-Fluoropyridin-4-yl)ethynyl)-5-methyl-1-(6-methylpyridin-3-yl)-1H-imidazole-2-carboxamide]
> 40 µM | 3.02 µM | > 40 µM | Cc1ccc(-n2c(C(N)=O)nc(C#Cc3cncc(Cl)c3)c2C)cn1 [Example 17, 4-[2-(5-Chloro-3-pyridyl)ethynyl]-5-methyl-1-(6-methyl-3-pyridyl)imidazole-2-carboxamide]
> 40 µM | 6.47 µM | – | Cc1ccc(-n2c(C(N)=O)nc(C#Cc3cc(Cl)ncn3)c2C)cn1 [Example 19, 4-((6-Chloropyrimidin-4-yl)ethynyl)-5-methyl-1-(6-methylpyridin-3-yl)-1H-imidazole-2-carboxamide]
> 40 µM | 8.59 µM | > 40 µM | Cc1ccc(-n2c(C(N)=O)nc(C#Cc3cccnc3)c2C)cn1 [Example 20, 5-Methyl-1-(6-methyl-3-pyridyl)-4-[2-(3-pyridyl)ethynyl]imidazole-2-carboxamide]
> 40 µM | 6.03 µM | > 40 µM | Cc1ccc(-n2c(C(N)=O)nc(C#Cc3ccnc(C)c3)c2C)cn1 [Example 22, 5-Methyl-1-(6-methylpyridin-3-yl)-4-((2-methylpyridin-4-yl)ethynyl)-1H-imidazole-2-carboxamide]
> 40 µM | 0.15 µM | > 40 µM | Cc1ccc(-n2c(C(N)=O)nc(C#Cc3ccnc(Cl)c3C)c2C)nn1 [Example 24, 4-[2-(2-Chloro-3-methyl-4-pyridyl)ethynyl]-5-methyl-1-(6-methylpyridazin-3-yl)imidazole-2-carboxamide]
> 40 µM | 0.087 µM | – | Cc1c(Cl)cccc1C#Cc1nc(C(N)=O)n(-c2cccnc2)c1C [Example 30, 4-[2-(3-Chloro-2-methyl-phenyl)ethynyl]-5-methyl-1-(3-pyridyl)imidazole-2-carboxamide]
> 40 µM | 3.16 µM | > 40 µM | Cc1c(C#Cc2ccnc(Cl)c2)nc(C(N)=O)n1-c1cccc(Cl)c1 [Example 40, 1-(3-Chlorophenyl)-4-((2-chloropyridin-4-yl)ethynyl)-5-methyl-1H-imidazole-2-carboxamide]
